For data set [1] the following is noted: ref [12],[13],[14], cited from earlier work.
In data set [2] the target is T1, recombinant CETP (Homo sapiens, UniProt P11597).
T1 construct: purchased Roar, New York, NY, USA RB-RPAK
T1 sequence (P11597 18-493): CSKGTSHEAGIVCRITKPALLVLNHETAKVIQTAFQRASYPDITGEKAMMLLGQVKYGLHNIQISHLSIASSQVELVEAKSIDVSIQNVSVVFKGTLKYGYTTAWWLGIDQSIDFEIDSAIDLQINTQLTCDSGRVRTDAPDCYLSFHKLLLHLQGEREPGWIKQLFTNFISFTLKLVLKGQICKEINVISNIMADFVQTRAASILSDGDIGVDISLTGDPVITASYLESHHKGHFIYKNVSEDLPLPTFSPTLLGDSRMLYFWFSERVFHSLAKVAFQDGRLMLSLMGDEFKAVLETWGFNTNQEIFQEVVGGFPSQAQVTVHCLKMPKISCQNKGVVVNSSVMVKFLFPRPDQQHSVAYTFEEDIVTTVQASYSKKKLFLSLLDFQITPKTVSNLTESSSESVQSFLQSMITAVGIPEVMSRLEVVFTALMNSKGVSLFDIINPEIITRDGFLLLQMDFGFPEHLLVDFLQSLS
Nature of the data set: In vitro CETP inhibitory assay (BODIPY-CE fluorescence assay, CETP RP Activity Assay Kit). The data set is classed as biochemical. The settings on record: CETP inhibition, eight-point titration, each concentration tested three times. The protocol:
The IC50 was determined from a curve fit of the data with each concentration tested three times.

Data set [3] is described as follows: In vitro metabolic stability study, human liver microsomes. The data set is classed as in vitro ADME. The settings on record: for Remaining (T = 60 min): human liver microsome, with NADPH regenerating system; for microsomal CLint at 10 µM: human, liver microsomes, read-out: CL (clearance rate). The protocol: (§1) Ten microliters (10 μL, 100 μM/L) of compounds and 80 μL of liver microsomes were mixed and incubated at 37 °C for 10 min, and then 10 μL of NADPH regenerating system was added. Samples were obtained at 0 min, 5 min, 10 min, 20 min, 30 min and 60 min. respectively, and 300 μL stop solution (cold in 4 °C, including 100 ng/mL tolbutamide and 100 ng/mL labetalol) was added to terminate the reaction. After oscillating for 10 min, the plates were centrifuged (4000 rpm) at room temperature for 20 min, and the supernatants were used for analysis.
On the technique in general: Microsomes from liver hold many membrane-bound enzymes, among them those of drug oxidation.

The nature of data set [4]: In vitro metabolic stability study, rat liver microsomes. The data set is classed as in vitro ADME. The following applies: for Remaining (NCF = 60 min) / Remaining (T = 60 min): rat liver microsome; for Remaining (NCF = 60 min): no co-factor (no NADPH regenerating system); for Remaining (T = 60 min): with NADPH regenerating system; for microsomal CLint at 10 µM: rat, liver microsomes, read-out: CL (clearance rate). Here is the method:
as §1

Data set [5] can be described thus: In vitro metabolic stability study, human liver microsomes. Format: in vitro ADME. The settings on record: human liver microsome, no co-factor (no NADPH regenerating system).
Data set [6] has as its target T1, recombinant CETP. Also noted: method as in previous work. The following applies: in Figure 2; ref previous work; cited from earlier work.
On the set-up of data set [7]: method as in PMID 26047975. The settings on record: phase II clinical trials; ref [18]; cited from earlier work.

Where two headings read alike, the source gives them in different places.

For the molecule `CCOC(=O)N1c2ccc(C(F)(F)F)cc2[C@@H](N(Cc2cc(C(F)(F)F)cc(C(F)(F)F)c2)C(=O)OC)C[C@H]1CC` [torcetrapib], the “increase of HDL-C” value in data set [1] (human studies, dose-dependent) is “greater than 100%”. The LDL-C decreasing entry in data set [1] (human studies) is recorded as “up to 42%”. Besides, the increase in deaths in data set [1] (torcetrapib/atorvastatin group compared to the atorvastatin group) was 58%.
Take `COc1ccc(N(Cc2ccc(F)cc2)Cc2nc(-c3ccc([N+](=O)[O-])cc3)cs2)cc1OC` [Compound 30, N-(4-Fluorobenzyl)-3,4-dimethoxy-N-((4-(4-nitrophenyl)thiazol-2-yl)methyl)aniline]: the melting point (usually the temperature of the solid-liquid transition) is 111 to 112.8 °C. The IC50 (commonly the concentration that inhibits the measured activity by half) on recombinant CETP [2] stood at 0.79 ± 0.02 µM. Moreover, the “metabolic stability (in words)” value in data set [3] (human and rat liver microsomes) is on record as “weak human/rat liver microsome stability”. Also, in data set [3], the “Remaining (T = 60 min)” value turned out to be 22.9% and the microsomal CLint at 10 µM worked out at 48.1 µL/min/mg. Further, in data set [4], the “Remaining (NCF = 60 min)” value is 90.5%, the “Remaining (T = 60 min)” value came out at 3.2% and the microsomal CLint at 10 µM was determined as 122 µL/min/mg. Also, the “Remaining (NCF = 60 min)” value in data set [5] stood at 68.0%.
For `COc1ccc(N(Cc2ccc(F)cc2)Cc2nc(-c3ccc(C(F)(F)F)cc3)cs2)cc1OC` [Compound 32, N-(4-Fluorobenzyl)-3,4-dimethoxy-N-((4-(4-(trifluoromethyl)phenyl)thiazol-2-yl)methyl)aniline], the melting point lay within 88.7 to 89.5 °C. Moreover, the IC50 on recombinant CETP [2] is 0.97 ± 0.01 µM. Besides, in data set [3], the “Remaining (T = 60 min)” value came out at 39.3% and the microsomal CLint at 10 µM turned out to be 29.8 µL/min/mg. For the same molecule, in data set [4], the “Remaining (NCF = 60 min)” value is given as 101.3%, the “Remaining (T = 60 min)” value is listed as 10.1% and the microsomal CLint at 10 µM came to 79.3 µL/min/mg. The “Remaining (NCF = 60 min)” value in data set [5] amounted to 69.1%.
For `O=C(CCN(Cc1ccc(F)cc1)c1cccc(Oc2ccccc2)c1)Nc1ccccc1` [Compound 5], on recombinant CETP [6], the half-maximal inhibitory concentration (IC50) is 24.8 µM.
On to `COc1ccc(N(Cc2ccc(F)cc2)Cc2nc(-c3ccc(N)cc3)cs2)cc1OC` [Compound 44, N-((4-(4-Aminophenyl)thiazol-2-yl)methyl)-N-(4-fluorobenzyl)-3,4-dimethoxyaniline], for which the melting point was in the range of 144.7 to 146.2 °C. Also, the IC50 on recombinant CETP [2] was found to be 16.7 ± 0.23 µM.
Take `CCOC(=O)N1c2ccc(C(F)(F)F)cc2[C@@H](N(Cc2cc(C(F)(F)F)cc(C(F)(F)F)c2)c2ncc(OCCCC(=O)O)cn2)C[C@H]1CC` [AMG-899]: in data set [7], the “increased HDL-C levels” value is given as 179.1% and the “reduced LDL-C levels” value was 45.3%.
Molecule `O=[N+]([O-])c1ccc(-c2csc(CN(Cc3ccc(F)cc3)c3cccc(-c4cccs4)c3)n2)cc1` [Compound 28, N-(4-Fluorobenzyl)-N-((4-(4-nitrophenyl)thiazol-2-yl)methyl)-3-(thiophen-2-yl)aniline] showed a melting point of 143.9 to 148.8 °C. Also, on recombinant CETP [2], the IC50 stood at 7.77 ± 0.13 µM.
Take `COc1ccc(N(Cc2ccc(F)cc2)Cc2nc(-c3ccc(N4CCOCC4)cc3)cs2)cc1OC` [Compound 49, N-(4-Fluorobenzyl)-3,4-dimethoxy-N-((4-(4-morpholinophenyl)thiazol-2-yl)methyl)aniline]: the melting point fell in the range of 139 to 140.4 °C. Besides, the half-inhibitory concentration (IC50) on recombinant CETP [2] was above 50 µM.
`Fc1ccc(CN(Cc2nnc(-c3ccccc3)o2)c2cccc(Oc3ccccc3)c2)cc1` [Compound 17e, N-(4-Fluorobenzyl)-3-phenoxy-N-((5-phenyl-1,3,4-oxadiazol-2-yl)methyl)aniline] came in with a melting point of 97.3 to 98.2 °C. The IC50 on recombinant CETP [2] worked out at 26.9 ± 0.35 µM.

Source of the values: article PMC6150381, “Design, Synthesis, and Biological Evaluation of N,N-Disubstituted-4-arylthiazole-2-methylamine Derivatives as Cholesteryl Ester Transfer Inhibitors” (Molecules : A Journal of Synthetic Chemistry and Natural …, 2017).
